In patent US5455161A, “Method for the monitoring of multiple anticancer drug resistance” (priority 1992, dated 1995):
Numbered stars: 1 amine (or outer) side, 2 acyl side, 3 side chain; on linkers, the order of the positions; unused ones are H or OH. Bridge positions count the residues as written; N and C are the ends. Square brackets hold non-standard residues; d marks the D form. Peptide text beside a SMILES is read from it. I, II: the chains in the order shown. Actinocin(9to1) = Cc1c2oc3c(C)ccc(C(=O)[*:1])c3nc-2c(C(=O)[*:2])c(N)c1=O; NMeV = CN[C@H](C(=O)O)C(C)C; Sar = CNCC(=O)O

How the values were obtained:
[1] = target: T1, ornithine decarboxylase from AA8 cells (Cricetulus griseus, UniProt P14019); assay: biochemical; conditions: IC50, concentration required to reduce the ornithine decarboxylase by 50%
T1 sequence (P14019 1-455): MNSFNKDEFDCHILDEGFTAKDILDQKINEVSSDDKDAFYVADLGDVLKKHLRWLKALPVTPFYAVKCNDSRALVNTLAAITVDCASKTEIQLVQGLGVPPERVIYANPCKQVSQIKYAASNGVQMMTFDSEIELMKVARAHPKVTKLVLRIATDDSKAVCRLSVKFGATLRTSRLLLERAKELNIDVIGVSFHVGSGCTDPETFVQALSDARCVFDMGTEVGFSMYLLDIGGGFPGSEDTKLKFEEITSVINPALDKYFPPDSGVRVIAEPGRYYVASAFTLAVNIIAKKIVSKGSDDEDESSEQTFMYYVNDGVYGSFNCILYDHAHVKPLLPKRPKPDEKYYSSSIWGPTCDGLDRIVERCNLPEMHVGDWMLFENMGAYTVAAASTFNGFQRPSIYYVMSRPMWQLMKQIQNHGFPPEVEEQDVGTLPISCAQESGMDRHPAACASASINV
Method: Monolayer cells grown in the absence and presence of a known cytotoxic agent, were washed twice with 10 mls of phosphate-buffered saline and suspended in a petri dish (0.5 ml/10 cm) in an ice-cold ornithine decarboxylase buffer containinig 50 mM of Tris-Cl, pH=7.3, 0.1 mM ethylene diamine tetraacetic acid, 50 uM pyridoxal 5'-phosphate (Sigma) and 5 mM of dithiothreitol. The cells were lysed under three cycles of freezing in liquid nitrogen and thawing at 37° C. The cell lysates were then centrifuged at 15,000 g for 15 minutes at 4° C., the supernatant liquid was collected and used in the assay for the ornithine decarboxylase activity. The assay was based on the Djurhuss method that utilizes a strong cation-exchange paper (Anal. Biochem. 113:352-5, 1981). […] After incubation for 60 minutes at 37° C. under agitation, the reaction mixture was spotted onto a strip of P81 cellulose phosphate paper and dried. After washing in a solution of 0.1M ammonium hydroxide and drying,liquid scintillation counting was performed. In similar manner, blank values were determined by using 80 ul of ornithine decarboxylase buffer, instead of the cytosolic cell extract.

[2] = system: T19 cells; assay: ODC (ornithine decarboxylase activity) assay of drug resistance, multidrug resistant T19 cells; assay type: cell-based, Chinese hamster; conditions: for IC50: Cricetulus griseus, read-out: IC50 (ODC assay) T19; for Resistance (-fold), ODC assay, T19 versus AA8: T19/AA8 ratio of IC50
Method: (§1) The protein determinations were carried out according to the method of Bradford (Anal.Biochem. 72, 248-54, 1976), using lysozyme, triple crystallization and dialysis, as a standard.
(§2) Monolayers of parental AA8 and multidrug resistant T19 cells grown for 4 days at 37° C., were exposed to various concentrations of the antimitotic agent colchinine, for 6 hours, 18 hours and 48 hours and then the activity of ornithine decarboxylase was determined.
(§3) In the same manner, this assay was tested with various anticancer drugs of various structure and distinct mechanisms of action. The following cytotoxic agents were tested: vinca alkaloids, anthracyclines, epipodophyllotoxins, actinomycin D and antifolates.

[3] = system: AA8 cells; assay: cells; assay type: cell-based, Chinese hamster; conditions: for IC50: Cricetulus griseus, CHO-AA8, read-out: LD50 (clonogenic assay) AA8
Method: (§4) Clonogenic cytotoxic assays were performed with AA8 and T19 cells exposed to various concentrations of colchinine for 6 hours, 18 hours, 48 hours or continuously, and each time the clonal surviving fractions were determined.

[4] = system: T19 cells; assay: cells; assay type: cell-based, Chinese hamster
Method: as §4

[5] = system: AA8 cells; assay: ODC (ornithine decarboxylase activity) assay of cellular drug sensitivity, wild type AA8 cells; assay type: cell-based, Chinese hamster; conditions: for IC50: Cricetulus griseus, read-out: IC50 (ODC assay) AA8
Method: as §1, §2, §3

[6] = Cricetulus griseus, read-out: LD50 (clonogenic assay) T19
[7] = incubation time 48 hr, mean of two to four independent experiments
[8] = CHO-AA8, incubation time 48 hr, mean of two to four independent experiments
[9] = incubation time 18 hr, mean of two to four independent experiments
[10] = CHO-AA8, incubation time 18 hr, mean of two to four independent experiments

NCCCC(N)(C(=O)O)C(F)F (racemic) [DMFO, DL-o-difluoromethylornithine]
IC50 ([1]; extract of AA8-induced cells (received fresh serum-containing medium), 2x10^7 cells): 5000 nM
IC50 ([1]; extract of non-induced AA8 cells (no fresh medium), same number of cells): 1100 nM

Cc1c2oc3c(C)ccc(C(=O)N[C@@H]4C(=O)N[C@H](C(C)C)C(=O)N5CCC[C@H]5C(=O)N(C)CC(=O)N(C)[C@@H](C(C)C)C(=O)O[C@@H]4C)c3nc-2c(C(=O)N[C@@H]2C(=O)N[C@H](C(C)C)C(=O)N3CCC[C@H]3C(=O)N(C)CC(=O)N(C)[C@@H](C(C)C)C(=O)O[C@@H]2C)c(N)c1=O [Actinomycin D] (I: T[dV]P[Sar][NMeV] / II: T[dV]P[Sar][NMeV]; ester I:1-I:C, II:1-II:C; linker I:N-II:N via Actinocin(9to1))
IC50 ([2]; 18 h): 42 nM
Resistance (-fold), ODC assay, T19 versus AA8 ([2]; incubation time 18 hr): 11.3 -fold
IC50 [3]: 2.2 nM
IC50 [4, 6]: 49.7 nM
Resistance (-fold), clonogenic assay, T19 versus AA8 ([4]; ratio of LD50 T19/AA8): 22.6 -fold
IC50 ([5]; CHO-AA8, 18 h): 3.7 nM

COc1cc2c(c(OC)c1OC)-c1ccc(OC)c(=O)cc1[C@@H](NC(C)=O)CC2 [Colchicine]
LD50 (clonogenic assay) AA8 [3]: 100 nM
IC50 ([4]; read-out: LD50 (50% lethal dose), clonal survival, t19 cells): 6700 nM
ornithine decarboxylase activity with increased drug concentrations ([5]; exposure 6, 18 and 48 hours): dose-dependent decrease

COc1cccc2c1C(=O)c1c(O)c3c(c(O)c1C2=O)C[C@@](O)(C(C)=O)C[C@@H]3O[C@H]1C[C@H](N)[C@H](O)[C@H](C)O1 [Daunorubicin]
IC50 [2, 7]: 1860 nM
Resistance (-fold), ODC assay, T19 versus AA8 ([2]; incubation time 48 hr): 63.0 -fold
IC50 [3]: 8.6 nM
IC50 [4, 6]: 726 nM
Resistance (-fold), clonogenic assay, T19 versus AA8 ([4]; hamster, t19 vs aa8 cells): 84.1 -fold
IC50 [5, 8]: 29.6 nM

COc1cccc2c1C(=O)c1c(O)c3c(c(O)c1C2=O)C[C@@](O)(C(=O)CO)C[C@@H]3O[C@H]1C[C@H](N)[C@H](O)[C@H](C)O1 [Doxorubicin]
IC50 [2, 7]: 3580 nM
Resistance (-fold), ODC assay, T19 versus AA8 ([2]; incubation time 48 hr): 65.0 -fold
IC50 [3]: 40 nM
IC50 [4, 6]: 8450 nM
IC50 [5, 8]: 55 nM

COc1cc([C@@H]2c3cc4c(cc3[C@@H](O[C@@H]3O[C@@H]5CO[C@@H](C)O[C@H]5[C@H](O)[C@H]3O)[C@H]3COC(=O)[C@H]23)OCO4)cc(OC)c1O [Etoposide]
IC50 ([2]; 48 h): 4180 nM
Resistance (-fold), ODC assay, T19 versus AA8 ([2]; incubation time 48 hr): 11.4 -fold
IC50 [3]: 265 nM
IC50 [4, 6]: 4200 nM
Resistance (-fold), clonogenic assay, T19 versus AA8 ([4]; ratio of LD50 T19/AA8): 15.9 -fold
IC50 ([5]; CHO-AA8, 48 h): 366 nM

CN(Cc1cnc2nc(N)nc(N)c2n1)c1ccc(C(=O)N[C@@H](CCC(=O)O)C(=O)O)cc1 [Methotrexate]
IC50 [2, 7]: 63.8 nM
Resistance (-fold), ODC assay, T19 versus AA8 ([2]; incubation time 48 hr): 1.1 -fold
IC50 [3]: 25.1 nM
IC50 [4, 6]: 30.6 nM
Resistance (-fold), clonogenic assay, T19 versus AA8 ([4]; hamster, t19 vs aa8 cells): 1.2 -fold
IC50 [5, 8]: 56.5 nM

Cc1nc(N)nc(N)c1-c1ccc(Cl)c(Cl)c1 [Metoprine]
IC50 [2, 7]: 53.2 nM
Resistance (-fold), ODC assay, T19 versus AA8 ([2]; incubation time 48 hr): 3.9 -fold
IC50 [3]: 12.6 nM
IC50 [4, 6]: 33.7 nM
Resistance (-fold), clonogenic assay, T19 versus AA8 ([4]; hamster, t19 vs aa8 cells): 2.7 -fold
IC50 [5, 8]: 13.8 nM

COc1ccc(OC)c(Cc2cnc3nc(N)nc(N)c3c2C)c1 [Piritrexim]
IC50 [2, 7]: 127 nM
Resistance (-fold), ODC assay, T19 versus AA8 ([2]; incubation time 48 hr): 22.0 -fold
IC50 [3]: 4.6 nM
IC50 [4, 6]: 113 nM
Resistance (-fold), clonogenic assay, T19 versus AA8 ([4]; ratio of LD50 T19/AA8): 24.5 -fold
IC50 [5, 8]: 5.8 nM

COc1ccc(C[C@H](N)C(=O)N[C@H]2[C@@H](O)[C@H](n3cnc4c(N(C)C)ncnc43)O[C@@H]2CO)cc1 [Puromycin]
IC50 [2, 7]: 315 nM
Resistance (-fold), ODC assay, T19 versus AA8 ([2]; incubation time 48 hr): 30.0 -fold
IC50 [3]: 4.5 nM
IC50 [4, 6]: 116 nM
Resistance (-fold), clonogenic assay, T19 versus AA8 ([4]; hamster, t19 vs aa8 cells): 25.8 -fold
IC50 [5, 8]: 10.5 nM

COc1cc(NCc2ccc3nc(N)nc(N)c3c2C)cc(OC)c1OC [Trimetrexate]
IC50 [2, 7]: 72.4 nM
Resistance (-fold), ODC assay, T19 versus AA8 ([2]; incubation time 48 hr): 25.0 -fold
IC50 [3]: 2.4 nM
IC50 [4, 6]: 68.6 nM
Resistance (-fold), clonogenic assay, T19 versus AA8 ([4]; hamster, t19 vs aa8 cells): 28.6 -fold
IC50 [5, 8]: 2.9 nM

CC[C@]1(O)C[C@@H]2CN(CCc3c([nH]c4ccccc34)[C@@](C(=O)OC)(c3cc4c(cc3OC)N(C)[C@H]3[C@@](O)(C(=O)OC)[C@H](OC(C)=O)[C@]5(CC)C=CCN6CC[C@]43[C@@H]65)C2)C1 [Vinblastine]
IC50 [2, 9]: 275 nM
Resistance (-fold), ODC assay, T19 versus AA8 ([2]; incubation time 18 hr): 17.3 -fold
IC50 [3]: 3 nM
IC50 [4, 6]: 80 nM
Resistance (-fold), clonogenic assay, T19 versus AA8 ([4]; hamster, t19 vs aa8 cells): 26.7 -fold
IC50 [5, 10]: 15.9 nM

CC[C@]1(O)C[C@H]2CN(CCc3c([nH]c4ccccc34)[C@@](C(=O)OC)(c3cc4c(cc3OC)N(C=O)[C@H]3[C@@](O)(C(=O)OC)[C@H](OC(C)=O)[C@]5(CC)C=CCN6CC[C@]43[C@@H]65)C2)C1 [Vincristine]
IC50 [2, 9]: 1530 nM
Resistance (-fold), ODC assay, T19 versus AA8 ([2]; incubation time 18 hr): 19.2 -fold
IC50 [3]: 8.2 nM
IC50 [4, 6]: 229 nM
Resistance (-fold), clonogenic assay, T19 versus AA8 ([4]; hamster, t19 vs aa8 cells): 28.1 -fold
IC50 [5, 10]: 79.6 nM
